# Results from patent US12043602B2, “Fendiline derivatives” (The Board of Regents of the University of Texas System, priority 2019, dated 2024).
# pEC50: −log10 of the molar value. Read-outs that look alike come from different tables or passages of the source.
# Experiments:
# mGFP-K-RASG12V = mGFP-K-RASG12V (Homo sapiens (Human), UniProt P01116, G12V); assay: K-Ras mislocalization assay (confocal microscopy, Manders coefficient); type: cell-based; parameters: key to Emax: Manders coefficient: fraction of mCherry-CAAX co-localizing with GFP-K-Ras; details: for pEC50: batch 4 compounds, title calls it IC50, read-out: EC50; for pEC50 / Emax / IC50: MDCK cells; for pEC50 / Emax: 48 h; for Emax: maximal effect, Manders coefficient; for IC50: 48 h treatment, read-out: IC50 (μM), KRASG12V mislocalization
# Summary of the method: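 Readout is the Manders coefficient: share of mCherry-CAAX overlapping mGFP-K-RASG12V in confocal images, proportional to K-Ras mislocalization. Stable MDCK co-expressing lines were exposed 48 h to various drug concentrations or 0.1% DMSO vehicle, then paraformaldehyde-fixed.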
# [1] = system: MDCK cells co-expressing GFP-K-RASG12V and mCherry-CAAX; assay: Cytotoxicity in mislocalization screen (death of all cells in well); details: drug caused death of all cells in well at 30 μM
SMILES,pEC50 (mGFP-K-RASG12V),Emax (mGFP-K-RASG12V),Cytotoxic at 30 μM [1],IC50 (mGFP-K-RASG12V) [µM],Emax (mGFP-K-RASG12V; listed as 12i),fold potency loss / decreased potency (mGFP-K-RASG12V; versus 12f (NY0244)) [fold],IC50 (mGFP-K-RASG12V; listed as 20) [µM],Emax (mGFP-K-RASG12V; listed as 20)
"CCN1CCN(CCN(CC=C(c2ccccc2)c2ccccc2)[C@H](C)c2ccc(OC)cc2)CC1 [NY0589, (R)-N-(2-(4-ethylpiperazin-1-yl)ethyl)-N-(1-(4-methoxyphenyl)ethyl)-3,3-diphenylprop-2-en-1-amine]",5.66,0.895,Yes,,,,,
"COc1ccc([C@@H](C)N(CC=C(c2ccccc2)c2ccccc2)CCN2CCN(C(=O)C(C)F)CC2)cc1 (stereo partly drawn) [NY0591, 1-(4-(2-((3,3-diphenylallyl)((R)-1-(4-methoxyphenyl)ethyl)amino)ethyl)piperazin-1-yl)-2-fluoropropan-1-one]",,0.825,No,,,,,
"C(CN(CCN1CCCC1)[C@@H]1C[C@H]1c1ccccc1)=C(c1ccccc1)c1ccccc1 [NY0592, (1R,2S)-N-(3,3-diphenylallyl)-2-phenyl-N-(2-(pyrrolidin-1-yl)ethyl)cyclopropan-1-amine]",5.25,0.685,Yes,,,,,
"COc1ccc([C@@H](C)N(CC=C(c2ccccc2)c2ccccc2)CCN2CCC2)cc1 [NY0593, (R)-N-(2-(azetidin-1-yl)ethyl)-N-(1-(4-methoxyphenyl)ethyl)-3,3-diphenylprop-2-en-1-amine]",6.31,0.694,Yes,0.5,0.69 ± 0.02,5,,
"CCCN1CCN(CCN(CC=C(c2ccccc2)c2ccccc2)[C@H](C)c2ccc(OC)cc2)CC1 [NY0594, (R)-N-(2-(4-propylpiperazin-1-yl)ethyl)-N-(1-(4-methoxyphenyl)ethyl)-3,3-diphenylprop-2-en-1-amine]",5.49,0.75,Yes,,,,,
"C(CN(CC=C(c1ccccc1)c1ccccc1)[C@@H]1C[C@H]1c1ccccc1)=C(c1ccccc1)c1ccccc1 [NY022601, (1R,2S)-N,N-bis(3,3-diphenylallyl)-2-phenylcyclopropanamine]",,0.713,No,0.42,,,,
"C(CN[C@@H]1C[C@H]1c1ccccc1)=C(c1ccccc1)c1ccccc1 [NY022602, (1R,2S)-N-(3,3-diphenylallyl)-2-phenylcyclopropanamine]",,0.637,No,0.16,,,,
"C[C@@H](CN(CC=C(c1ccccc1)c1ccccc1)CC=C(c1ccccc1)c1ccccc1)c1ccccc1 [NY022701, (R)-N-(3,3-diphenylallyl)-3,3-diphenyl-N-(2-phenylpropyl)prop-2-en-1-amine]",,0.494,No,,,,,
"C[C@@H](CNCC=C(c1ccccc1)c1ccccc1)c1ccccc1 [NY022702, (R)-3,3-diphenyl-N-(2-phenylpropyl)prop-2-en-1-amine]",,0.608,No,16.9,,,,
"C(CN(CC=C(c1ccccc1)c1ccccc1)C1(c2ccccc2)CC1)=C(c1ccccc1)c1ccccc1 [NY040401, N,N-bis(3,3-diphenylallyl)-1-phenylcyclopropanamine]",,0.778,No,1.46,,,,
"COC(=O)[C@@H](c1ccccc1)N(CC=C(c1ccccc1)c1ccccc1)CC=C(c1ccccc1)c1ccccc1 [NY055101, methyl (R)-2-(bis(3,3-diphenylallyl)amino)-2-phenylacetate]",5.05,0.424,Yes,,,,,
"COC(=O)[C@H](NCC=C(c1ccccc1)c1ccccc1)c1ccccc1 [NY055102, Methyl (R)-2-((3,3-diphenylallyl)amino)-2-phenylacetate]",,0.424,No,,,,,
"COc1ccc([C@@H](C)N(CC=C(c2ccccc2)c2ccccc2)C(=O)CN2CCCC2)cc1 [PW124, (R)-N-(3,3-diphenylallyl)-N-(1-(4-methoxyphenyl)ethyl)-2-(pyrrolidin-1-yl)acetamide]",,0.452,Yes,0.553,,,,
"COc1ccc([C@@H](C)N(CC=C(c2ccccc2)c2ccccc2)C(=O)CN2CCN(C)CC2)cc1 [PW125, (R)-N-(3,3-diphenylallyl)-N-(1-(4-methoxyphenyl)ethyl)-2-(4-methylpiperazin-1-yl)acetamide]",,0.514,Yes,7.09,,,7.1,0.51 ± 0.02
"COc1ccc([C@@H](C)N(CC=C(c2ccccc2)c2ccccc2)C(=O)CN2CCC(O)CC2)cc1 [PW126, (R)-N-(3,3-diphenylallyl)-2-(4-hydroxypiperidin-1-yl)-N-(1-(4-methoxyphenyl)ethyl)acetamide]",,0.412,Yes,2.19,,,,
"O=C(c1ccc(F)cc1)N(CC=C(c1ccccc1)c1ccccc1)CCN1CCCC1 [PW276, N-(3,3-diphenylallyl)-4-fluoro-N-(2-(pyrrolidin-1-yl)ethyl)benzamide]",,0.572,Yes,4.8,,,,
"O=S(=O)(c1ccc(F)cc1)N(CC=C(c1ccccc1)c1ccccc1)CCN1CCCC1 [PW277, N-(3,3-diphenylallyl)-4-fluoro-N-(2-(pyrrolidin-1-yl)ethyl)benzenesulfonamide]",,0.592,Yes,3.97,,,,
"Fc1ccc(CN(CC=C(c2ccccc2)c2ccccc2)CCN2CCCC2)cc1 [PW278, N-(4-fluorobenzyl)-3,3-diphenyl-N-(2-(pyrrolidin-1-yl)ethyl)prop-2-en-1-amine]",,0.739,Yes,8.85,,,,
"O=C(Nc1ccc(F)cc1)N(CC=C(c1ccccc1)c1ccccc1)CCN1CCCC1 [PW279, 1-(3,3-diphenylallyl)-3-(4-fluorophenyl)-1-(2-(pyrrolidin-1-yl)ethyl)urea]",,0.608,Yes,3.4,,,,
"O=C(OCc1ccccc1)N(CC=C(c1ccccc1)c1ccccc1)CCN1CCCC1 [PW280, benzyl (3,3-diphenylallyl)(2-(pyrrolidin-1-yl)ethyl)carbamate]",,0.709,Yes,6.03,,,,
"Nc1nccnc1C(=O)N(CC=C(c1ccccc1)c1ccccc1)CCN1CCCC1 [PW282, 3-amino-N-(3,3-diphenylallyl)-N-(2-(pyrrolidin-1-yl)ethyl)pyrazine-2-carboxamide]",,0.592,No,12.5,,,,
"O=C(c1cc(-c2ccc(Cl)cc2)on1)N(CC=C(c1ccccc1)c1ccccc1)CCN1CCCC1 [PW283, 5-(4-chlorophenyl)-N-(3,3-diphenylallyl)-N-(2-(pyrrolidin-1-yl)ethyl)isoxazole-3-carboxamide]",,0.324,Yes,,,,,
"O=C(/C=C/c1ccccc1)N(CC=C(c1ccccc1)c1ccccc1)CCN1CCCC1 [PW284, N-(3,3-diphenylallyl)-N-(2-(pyrrolidin-1-yl)ethyl)cinnamamide]",,0.549,Yes,,,,,
"O=C(c1cnc2ccccc2n1)N(CC=C(c1ccccc1)c1ccccc1)CCN1CCCC1 [PW285, N-(3,3-diphenylallyl)-N-(2-(pyrrolidin-1-yl)ethyl)quinoxaline-2-carboxamide]",,0.62,Yes,4.52,,,,
"O=C(c1cc2ccccn2n1)N(CC=C(c1ccccc1)c1ccccc1)CCN1CCCC1 [PW286, N-(3,3-diphenylallyl)-N-(2-(pyrrolidin-1-yl)ethyl)pyrazolo[1,5-a]pyridine-2-carboxamide]",,0.801,No,6.63,,,,
"C(CN(CCN1CCCC1)Cc1cc2cccnc2[nH]1)=C(c1ccccc1)c1ccccc1 [PW293, N-((1H-pyrrolo[2,3-b]pyridin-2-yl)methyl)-3,3-diphenyl-N-(2-(pyrrolidin-1-yl)ethyl)prop-2-en-1-amine]",,0.83,Yes,3.37,,,,
"Brc1cccc(CN(CC=C(c2ccccc2)c2ccccc2)CCN2CCCC2)n1 [PW295, N-((6-bromopyridin-2-yl)methyl)-3,3-diphenyl-N-(2-(pyrrolidin-1-yl)ethyl)prop-2-en-1-amine]",,0.801,Yes,2.82,,,,
"C[C@H](c1ccc(F)cc1)N(CC=C(c1ccccc1)c1ccccc1)CCn1ccc2cccnc21 [PW297, (R)-N-(2-(1H-pyrrolo[2,3-b]pyridin-1-yl)ethyl)-N-(1-(4-fluorophenyl)ethyl)-3,3-diphenylprop-2-en-1-amine]",,0.685,No,2.27,,,,
"Cc1cc(C)n(CCN(CC=C(c2ccccc2)c2ccccc2)[C@H](C)c2ccc(F)cc2)n1 [PW299, (R)-N-(2-(3,5-dimethyl-1H-pyrazol-1-yl)ethyl)-N-(1-(4-fluorophenyl)ethyl)-3,3-diphenylprop-2-en-1-amine]",,0.696,No,0.654,,,,
"C[C@H](c1ccc(F)cc1)N(CC=C(c1ccccc1)c1ccccc1)CCn1cc(CCO)nn1 [PW303, (R)-2-(1-(2-((3,3-diphenylallyl)(1-(4-fluorophenyl)ethyl)amino)ethyl)-1H-1,2,3-triazol-4-yl)ethan-1-ol]",,0.675,Yes,4.13,,,,
